Literature values, collected in patent US20050065219A1, “Treatment of demyelinating conditions” (priority 2003, published 2005).

Experiments:
NMDA receptor channel = NMDA receptor channel (Homo sapiens, UniProt Q05586); conditions: Bormann 1989
[1] = tested on: cortical and retinal neuron cultures; conditions: cortical and retinal neuron cultures (Deyer et al. 1990)
[2] = rats (Keilhoff et al. 1992)
[3] = target: brain membranes ([3H]dizocilpine site) (Homo sapiens, UniProt Q05586); conditions: Chen et al. 1992
[4] = tested on: nicotinic acetylcholine receptors; conditions: Masou et al. 1986
[5] = tested on: 5-hydroxytryptamine 5-HT3 receptors; conditions: Reiser et al. 1988
[6] = target: PCP and MK-801 binding sites of the NMDA receptor (Homo sapiens, UniProt Q05586); conditions: postmortem human frontal cortex, at therapeutic concentrations (Kornhuber et al. 1989)
[7] = clinical use for many years (Kornhuber et al. 1994)

In the case of CC12CC3CC(C)(C1)CC(N)(C3)C2 [memantine, 1-amino-3,5-dimethyladamantane], the “antagonism of the NMDA receptor channel” value (NMDA receptor channel) is given as “micromolar antagonist”, the “protection from toxicity of glutamate, NMDA and HIV-1 coat protein gp120” value [1] is given as “protects” and the “quinolic acid-induced hippocampal damage” value [2] is given as “prevents”. For the same compound, the “[3H]dizocilpine binding to brain membranes” value [3] was “inhibits”, the “block of nicotinic acetylcholine receptors” value [4] was “blocks” and the “block of 5-HT3 receptors” value [5] was “blocks”. For the same compound, the “binding to PCP and MK-801 binding sites of the NMDA receptor” value [6] was “binds” and the “tolerability in clinical use” value [7] was “well tolerated”.
